Data on one substance can be found in US20200290034A1, “COMPOSITION AND METHOD FOR REGENERATING CATION EXCHANGE RESINS” (Tygrus, LLC, priority 2019, published 2020).

Series [1] in a line: Shelf-stability of stored samples. The format is physicochemical. To be noted: closed containers at standard temperature and 50% relative humidity. The text has this:
The material produced in Example I is separated into individual samples. Some are stored in closed containers at standard temperature and 50% relative humidity to determine shelf-stability. Other samples are subjected to analytical procedures to determine composition. The test samples are subjected to FFTIR spectra analysis and titrated with hydrogen coulometry. The sample material has a molarity ranging from […] strength. The material has a gravimetric range greater than 1.15; with ranges greater than 1.9 in certain instances. The composition is stable and has a 1.87 to 1.78 molar material that contains 8 to 9% of the total moles of acid protons that are not charged balanced.

Series [2] is described as follows: Excess hydrogen ion concentration and pH after admixing with water. As to conditions: 5 ml material admixed in 5 ml deionized and distilled water, standard temperature and pressure.

With “hydrogen (1+), triaqua-μ3-oxotri sulfate (1:1) [Example I]”, in series [1], the shelf-stability result is on record as “stable”. In addition, in series [2], the “excess hydrogen ion concentration” value is on record as “greater than 15 % by volume” and the pH was found to be 1.
